# Data from PMC7932537, “Quantitative profiling of protease specificity” (PLoS Computational Biology, 2021).
# What was measured:
# MMP-2 = target: T1, MMP-2 (Homo sapiens, UniProt P08253); experiment: K(obs) of individual phage substrates (set of 1369); type: biochemical; details: MMP2
# T1 sequence (P08253 110-660): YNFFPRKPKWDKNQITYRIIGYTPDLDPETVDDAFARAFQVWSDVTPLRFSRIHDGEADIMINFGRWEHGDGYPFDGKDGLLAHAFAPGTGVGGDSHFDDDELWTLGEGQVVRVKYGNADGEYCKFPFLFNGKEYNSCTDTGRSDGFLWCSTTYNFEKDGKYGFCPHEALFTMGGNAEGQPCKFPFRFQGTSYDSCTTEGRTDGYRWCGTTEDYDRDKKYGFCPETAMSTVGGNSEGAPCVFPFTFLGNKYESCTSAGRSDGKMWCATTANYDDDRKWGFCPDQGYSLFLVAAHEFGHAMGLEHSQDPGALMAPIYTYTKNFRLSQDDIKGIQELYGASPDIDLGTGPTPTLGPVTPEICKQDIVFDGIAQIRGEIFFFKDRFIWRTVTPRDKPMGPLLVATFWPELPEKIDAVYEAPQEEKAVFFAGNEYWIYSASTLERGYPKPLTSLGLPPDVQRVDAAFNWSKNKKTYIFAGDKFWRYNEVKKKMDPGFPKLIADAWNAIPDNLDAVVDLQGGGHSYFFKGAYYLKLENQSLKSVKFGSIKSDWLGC
# MMP-9 = MMP-9 (Homo sapiens, UniProt P14780); experiment: as above; type: biochemical; details: MMP9, individual phage substrates, set of 1369 peptides
# MMP-9, sequence (P14780 94-707): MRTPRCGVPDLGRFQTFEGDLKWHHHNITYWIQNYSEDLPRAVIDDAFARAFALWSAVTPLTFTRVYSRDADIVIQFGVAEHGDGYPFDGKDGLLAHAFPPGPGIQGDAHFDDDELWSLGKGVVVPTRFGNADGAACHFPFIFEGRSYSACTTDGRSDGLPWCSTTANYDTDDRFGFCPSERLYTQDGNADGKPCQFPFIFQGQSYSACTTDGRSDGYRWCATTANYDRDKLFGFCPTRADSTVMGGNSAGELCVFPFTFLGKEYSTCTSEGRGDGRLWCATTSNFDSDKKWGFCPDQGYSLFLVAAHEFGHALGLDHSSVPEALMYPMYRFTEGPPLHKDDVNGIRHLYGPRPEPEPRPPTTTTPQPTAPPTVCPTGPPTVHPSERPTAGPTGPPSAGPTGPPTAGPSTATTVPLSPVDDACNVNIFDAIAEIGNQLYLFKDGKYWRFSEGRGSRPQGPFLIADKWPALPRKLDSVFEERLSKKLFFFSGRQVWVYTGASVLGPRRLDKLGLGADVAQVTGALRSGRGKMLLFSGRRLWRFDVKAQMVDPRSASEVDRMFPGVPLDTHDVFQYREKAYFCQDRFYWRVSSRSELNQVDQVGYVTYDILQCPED
# [1] = individual phage substrates, set of 1369 peptides, cleavage position marked by '-' in the sequence
# [2] = '-' marks the cleavage position (P1-P1')
# [3] = individual phage substrate from the set of 1369 peptides, cleavage position marked by the dash in the sequence
# [4] = dash in sequence marks cleavage position
Kobs (MMP-2; [1]),Kobs (MMP-9; [2]),Kobs (MMP-2; [3]),Kobs (MMP-9; [4]),Substance
6131.32 M⁻¹ s⁻¹,5889.62 M⁻¹ s⁻¹,,,GKPLP-WTASG
9740.44 M⁻¹ s⁻¹,0 M⁻¹ s⁻¹,,,RHLAK-LTASG
12792.1 M⁻¹ s⁻¹,9740.44 M⁻¹ s⁻¹,,,SIPNA-LTASG
12792.1 M⁻¹ s⁻¹,12792.1 M⁻¹ s⁻¹,,,HHPAA-LTASG
,,355.093 M⁻¹ s⁻¹,355.093 M⁻¹ s⁻¹,GGSGQ-LRREY
12792.1 M⁻¹ s⁻¹,10866.7 M⁻¹ s⁻¹,,,SMPRM-LTASG
,,0 M⁻¹ s⁻¹,27.918 M⁻¹ s⁻¹,GRAWM-MVTAS
,,7015.91 M⁻¹ s⁻¹,2996.69 M⁻¹ s⁻¹,AMAHS-LTASG
,,142.481 M⁻¹ s⁻¹,0 M⁻¹ s⁻¹,GSGWD-LKRST
,,7815.03 M⁻¹ s⁻¹,0 M⁻¹ s⁻¹,FMYSH-LTASG
799.117 M⁻¹ s⁻¹,2157.02 M⁻¹ s⁻¹,,,SGVRM-LRRTA
,,12792.1 M⁻¹ s⁻¹,10866.7 M⁻¹ s⁻¹,PSPRY-LTASG
,,6131.32 M⁻¹ s⁻¹,4922.1 M⁻¹ s⁻¹,TTALW-LTASG
762.325 M⁻¹ s⁻¹,201.585 M⁻¹ s⁻¹,,,SGLYG-LTLTA
0 M⁻¹ s⁻¹,619.843 M⁻¹ s⁻¹,,,SGALA-LLDTA
201.585 M⁻¹ s⁻¹,261.974 M⁻¹ s⁻¹,,,GYGLH-LRTAS
0 M⁻¹ s⁻¹,0 M⁻¹ s⁻¹,,,GMYLN-LKTAS
0 M⁻¹ s⁻¹,231.616 M⁻¹ s⁻¹,,,GSGLE-LRVNT
,,4613.14 M⁻¹ s⁻¹,0 M⁻¹ s⁻¹,GGSGA-LTSRF
5269.78 M⁻¹ s⁻¹,0 M⁻¹ s⁻¹,,,SSYAH-LTASG
3637.04 M⁻¹ s⁻¹,6688.74 M⁻¹ s⁻¹,,,PDVFA-LTASG
12792.1 M⁻¹ s⁻¹,12792.1 M⁻¹ s⁻¹,,,HYPSS-LTASG
6131.32 M⁻¹ s⁻¹,12792.1 M⁻¹ s⁻¹,,,APVYA-LTASG

Kobs (MMP-2; [1]),Kobs (MMP-9; [2]),Kobs (MMP-2; [3]),Kobs (MMP-9; [4]),Substance
12792.1 M⁻¹ s⁻¹,12792.1 M⁻¹ s⁻¹,,,NRPSA-LTASG
10866.7 M⁻¹ s⁻¹,10866.7 M⁻¹ s⁻¹,,,HLVAW-LTASG
484.315 M⁻¹ s⁻¹,1071.29 M⁻¹ s⁻¹,,,GRAQN-LLTAS
12792.1 M⁻¹ s⁻¹,12792.1 M⁻¹ s⁻¹,,,VFALN-LTASG
10866.7 M⁻¹ s⁻¹,12792.1 M⁻¹ s⁻¹,,,SGARN-LMATA
0 M⁻¹ s⁻¹,0 M⁻¹ s⁻¹,,,GVMMQ-LVTAS
12792.1 M⁻¹ s⁻¹,484.315 M⁻¹ s⁻¹,,,QHLAA-LTASG
27.918 M⁻¹ s⁻¹,0 M⁻¹ s⁻¹,,,SGVNL-LLMTA
12792.1 M⁻¹ s⁻¹,5269.78 M⁻¹ s⁻¹,,,TPVGW-MTASG
12792.1 M⁻¹ s⁻¹,9740.44 M⁻¹ s⁻¹,,,GSPVW-LRTAS
12792.1 M⁻¹ s⁻¹,7015.91 M⁻¹ s⁻¹,,,VQLRS-LTASG
12792.1 M⁻¹ s⁻¹,10866.7 M⁻¹ s⁻¹,,,GAPAF-LKTAS
,,2761.81 M⁻¹ s⁻¹,1239.69 M⁻¹ s⁻¹,GKPNR-LVTAS
0 M⁻¹ s⁻¹,0 M⁻¹ s⁻¹,,,SGLWT-LMATA
,,5461.43 M⁻¹ s⁻¹,8321.48 M⁻¹ s⁻¹,VKVWG-LTASG
12792.1 M⁻¹ s⁻¹,3850.82 M⁻¹ s⁻¹,,,FHIAH-LTASG
0 M⁻¹ s⁻¹,0 M⁻¹ s⁻¹,,,GSGAK-LIVRT
5269.78 M⁻¹ s⁻¹,0 M⁻¹ s⁻¹,,,VDHAH-LTASG
12792.1 M⁻¹ s⁻¹,12792.1 M⁻¹ s⁻¹,,,SGPYN-LRGTA
,,0 M⁻¹ s⁻¹,0 M⁻¹ s⁻¹,SGHMH-MRSTA
12792.1 M⁻¹ s⁻¹,7815.03 M⁻¹ s⁻¹,,,RVIRH-LTASG
12792.1 M⁻¹ s⁻¹,12792.1 M⁻¹ s⁻¹,,,LVVAA-LTASG

# Continued, substance first:
Substance,Kobs (MMP-2; [1]),Kobs (MMP-9; [2]),Kobs (MMP-2; [3]),Kobs (MMP-9; [4])
SGAWN-MRVTA,292.668 M⁻¹ s⁻¹,3079.62 M⁻¹ s⁻¹,,
GSALA-LTTAS,619.843 M⁻¹ s⁻¹,1196.62 M⁻¹ s⁻¹,,
RNLAS-LTASG,7815.03 M⁻¹ s⁻¹,142.481 M⁻¹ s⁻¹,,
RRPAS-MTASG,5090.5 M⁻¹ s⁻¹,7015.91 M⁻¹ s⁻¹,,
GSPVQ-LTTAS,1816.46 M⁻¹ s⁻¹,1327.88 M⁻¹ s⁻¹,,
FTPLN-MTASG,12792.1 M⁻¹ s⁻¹,10866.7 M⁻¹ s⁻¹,,
TVSLP-LTASG,,,2097.28 M⁻¹ s⁻¹,355.093 M⁻¹ s⁻¹
VDILH-LTASG,3438.54 M⁻¹ s⁻¹,551.253 M⁻¹ s⁻¹,,
TRPQH-LTASG,10866.7 M⁻¹ s⁻¹,7815.03 M⁻¹ s⁻¹,,
SGLAR-LSMTA,,,0 M⁻¹ s⁻¹,0 M⁻¹ s⁻¹
RHMLG-LTASG,,,1154.21 M⁻¹ s⁻¹,726.013 M⁻¹ s⁻¹
VWGRA-LTASG,7386.83 M⁻¹ s⁻¹,8321.48 M⁻¹ s⁻¹,,
GVVHS-FCTAS,0 M⁻¹ s⁻¹,0 M⁻¹ s⁻¹,,
GRASR-LVTAS,,,551.253 M⁻¹ s⁻¹,0 M⁻¹ s⁻¹
RTYSH-LTASG,3079.62 M⁻¹ s⁻¹,0 M⁻¹ s⁻¹,,
ERLLH-LTASG,,,2837.92 M⁻¹ s⁻¹,231.616 M⁻¹ s⁻¹
EVSQH-LTASG,690.17 M⁻¹ s⁻¹,551.253 M⁻¹ s⁻¹,,
TSVLA-LTASG,8321.48 M⁻¹ s⁻¹,4335.13 M⁻¹ s⁻¹,,
MKPVN-LTASG,12792.1 M⁻¹ s⁻¹,12792.1 M⁻¹ s⁻¹,,

Substance,Kobs (MMP-2; [1]),Kobs (MMP-9; [2]),Kobs (MMP-2; [3]),Kobs (MMP-9; [4])
GDVRH-IFTAS,,,231.616 M⁻¹ s⁻¹,261.974 M⁻¹ s⁻¹
SGPMG-MRNTA,5667.28 M⁻¹ s⁻¹,5889.62 M⁻¹ s⁻¹,,
QRVLP-LTASG,,,6396.07 M⁻¹ s⁻¹,2038.8 M⁻¹ s⁻¹
GGSGP-LMLPF,3964.21 M⁻¹ s⁻¹,517.582 M⁻¹ s⁻¹,,
KRAAS-LTASG,12792.1 M⁻¹ s⁻¹,1283.43 M⁻¹ s⁻¹,,
NSPQL-LTASG,,,6396.07 M⁻¹ s⁻¹,2097.28 M⁻¹ s⁻¹
FTVHM-LTASG,,,1418.96 M⁻¹ s⁻¹,1513.13 M⁻¹ s⁻¹
CCSLA-LTASG,,,551.253 M⁻¹ s⁻¹,386.839 M⁻¹ s⁻¹
GWMHE-LKTAS,0 M⁻¹ s⁻¹,0 M⁻¹ s⁻¹,,
HRPFG-LTASG,12792.1 M⁻¹ s⁻¹,12792.1 M⁻¹ s⁻¹,,
YNVNY-LTASG,,,3964.21 M⁻¹ s⁻¹,201.585 M⁻¹ s⁻¹
SGALD-LKRTA,,,0 M⁻¹ s⁻¹,0 M⁻¹ s⁻¹
SSPLY-LTASG,12792.1 M⁻¹ s⁻¹,12792.1 M⁻¹ s⁻¹,,
DAPYF-LTASG,,,5667.28 M⁻¹ s⁻¹,8321.48 M⁻¹ s⁻¹
SDIRW-LTASG,7386.83 M⁻¹ s⁻¹,4335.13 M⁻¹ s⁻¹,,
RDVLW-LTASG,3964.21 M⁻¹ s⁻¹,6688.74 M⁻¹ s⁻¹,,
GVPLN-VKTAS,5090.5 M⁻¹ s⁻¹,12792.1 M⁻¹ s⁻¹,,
SGPHW-LNATA,3741.87 M⁻¹ s⁻¹,10866.7 M⁻¹ s⁻¹,,
GVLGH-LSTAS,3438.54 M⁻¹ s⁻¹,0 M⁻¹ s⁻¹,,
